Results from patent publication US20110288086A1, “POLYCYCLIC QUINAZOLINES, PREPARATION THEREOF, AND USE THEREOF” (priority 2010, published 2011).
Values after ≈ are worked out from the molar mass of the structure shown.

Tests used:
[1] = system: PC-3 human carcinoma of prostate; experiment: Tumor cell inhibition ratio, CCK-8 kit, PC-3; conditions: read-out: Antiproliferative effect (inhibition ratio) PC-3
Description: (§3) The inhibitory activities of the compounds on tumor cells in vitro

[2] = system: K562 human chronicity marrow leukemic cells; experiment: Tumor cell IC50, CCK-8 kit, K562; format: cell-based
Text: (§1) The inhibitory activities of the compounds on tumor cells (IC50) in vitro
(§2) The IC50 (IC50, unit: μg/ml) values of the compounds on Hut78 T-Lymphocytic Leukemia cells, Jurkat E6-1 human T-cell lymphoma, PANC-1 human pancreatic cancer cells, A549 human lung cancer cells, K562 human chronicity marrow leukemic cells, Hep3B2. 1-7 human hepatoma carcinoma cells, MDA-MB-435s human breast carcinoma cells, Colo320 human rectal cancer cells, PC-3 human carcinoma of prostate, and HepG2 human hepatoma carcinoma cells were determined using a CCK-8 kit. Erlotinib hydrochloride was used as the positive control drug.

[3] = system: Jurkat E6-1 human T-cell lymphoma; experiment: Tumor cell IC50, CCK-8 kit, Jurkat E6-1; format: cell-based; conditions: E6-1 cells
Text: as §1, §2

[4] = system: Jurkat E6-1 human T-cell lymphoma; experiment: Tumor cell inhibition ratio, CCK-8 kit, Jurkat E6-1; conditions: Jurkat E6.1, read-out: Antiproliferative effect (inhibition ratio) E6-1
Description: as §3

[5] = system: K562 human chronicity marrow leukemic cells; experiment: Tumor cell inhibition ratio, CCK-8 kit, K562; conditions: K562, read-out: Antiproliferative effect (inhibition ratio) K562
Description: as §3

[6] = system: MDA-MB-435s human breast carcinoma cells; experiment: Tumor cell IC50, CCK-8 kit, MDA-MB-435s; format: cell-based; conditions: 435s cells
Text: as §1, §2

[7] = system: Colo320 human rectal cancer cells; experiment: Tumor cell IC50, CCK-8 kit, Colo320; format: cell-based; conditions: COLO 320
Text: as §1, §2

Acute Toxicity Study = conditions: in vivo; preliminary screening, Bliss statistical method
Description: The acute toxicity experiments were carried out according to the methods disclosed in the book of Modern Pharmacological Methods, edited chiefly by Zhang Jun-Tian.

[8] = system: A549 human lung cancer cells; experiment: Tumor cell IC50, CCK-8 kit, A549; format: cell-based
Text: as §1, §2

[9] = system: PANC-1 human pancreatic cancer cells; experiment: Tumor cell inhibition ratio, CCK-8 kit, PANC-1; conditions: PANC-1, read-out: Antiproliferative effect (inhibition ratio) PANC-1
Description: as §3

[10] = system: Hut78 T-Lymphocytic Leukemia cells; experiment: Tumor cell IC50, CCK-8 kit, Hut78; format: cell-based; conditions: Homo sapiens, Hut-78 cells
Text: as §1, §2

[11] = system: PC-3 human carcinoma of prostate; experiment: Tumor cell IC50, CCK-8 kit, PC-3; format: cell-based; conditions: PC-3 cells
Text: as §1, §2

[12] = system: PANC-1 human pancreatic cancer cells; experiment: Tumor cell IC50, CCK-8 kit, PANC-1; format: cell-based; conditions: PANC-1 cells
Text: as §1, §2

[13] = system: Hep3B2. 1-7 human hepatoma carcinoma cells; experiment: Tumor cell IC50, CCK-8 kit, Hep3B; format: cell-based
Text: as §1, §2

[14] = system: Hut78 T-Lymphocytic Leukemia cells; experiment: Tumor cell inhibition ratio, CCK-8 kit, Hut78; conditions: Homo sapiens, HuT78, read-out: Antiproliferative effect (inhibition ratio) Hut-78
Description: as §3

[15] = system: MDA-MB-435s human breast carcinoma cells; experiment: Tumor cell inhibition ratio, CCK-8 kit, MDA-MB-435s; conditions: read-out: Antiproliferative effect (inhibition ratio) 435s
Description: as §3

[16] = system: Colo320 human rectal cancer cells; experiment: Tumor cell inhibition ratio, CCK-8 kit, Colo320; conditions: COLO 320, read-out: Antiproliferative effect (inhibition ratio) Colo320
Description: as §3

aurora kinase B = target: T1, aurora kinase B (Homo sapiens, UniProt Q96GD4); experiment: Aurora kinase B inhibition in vitro (Invitrogen aurora kinase screening kit PV3174); format: biochemical
T1 construct: purchased Invitrogen PV3174

[17] = system: Hep3B2.1-7 human hepatoma carcinoma cells; experiment: Tumor cell inhibition ratio, CCK-8 kit, Hep3B; conditions: read-out: Antiproliferative effect (inhibition ratio) Hep3B
Description: as §3

EGFR tyrosine kinase = EGFR tyrosine kinase (Homo sapiens, UniProt P00533); experiment: EGFR tyrosine kinase inhibition in vitro (Invitrogen EGFR inhibitor screening kit PV3193)
Description: The inhibitory activities of EGFR tyrosine kinase in vitro
Erlotinib hydrochloride was used as a positive control drug.

[18] = system: A549 human lung cancer cells; experiment: Tumor cell inhibition ratio, CCK-8 kit, A549; conditions: A549, read-out: Antiproliferative effect (inhibition ratio) A549
Description: as §3

Sequence of EGFR tyrosine kinase (P00533 25-1210): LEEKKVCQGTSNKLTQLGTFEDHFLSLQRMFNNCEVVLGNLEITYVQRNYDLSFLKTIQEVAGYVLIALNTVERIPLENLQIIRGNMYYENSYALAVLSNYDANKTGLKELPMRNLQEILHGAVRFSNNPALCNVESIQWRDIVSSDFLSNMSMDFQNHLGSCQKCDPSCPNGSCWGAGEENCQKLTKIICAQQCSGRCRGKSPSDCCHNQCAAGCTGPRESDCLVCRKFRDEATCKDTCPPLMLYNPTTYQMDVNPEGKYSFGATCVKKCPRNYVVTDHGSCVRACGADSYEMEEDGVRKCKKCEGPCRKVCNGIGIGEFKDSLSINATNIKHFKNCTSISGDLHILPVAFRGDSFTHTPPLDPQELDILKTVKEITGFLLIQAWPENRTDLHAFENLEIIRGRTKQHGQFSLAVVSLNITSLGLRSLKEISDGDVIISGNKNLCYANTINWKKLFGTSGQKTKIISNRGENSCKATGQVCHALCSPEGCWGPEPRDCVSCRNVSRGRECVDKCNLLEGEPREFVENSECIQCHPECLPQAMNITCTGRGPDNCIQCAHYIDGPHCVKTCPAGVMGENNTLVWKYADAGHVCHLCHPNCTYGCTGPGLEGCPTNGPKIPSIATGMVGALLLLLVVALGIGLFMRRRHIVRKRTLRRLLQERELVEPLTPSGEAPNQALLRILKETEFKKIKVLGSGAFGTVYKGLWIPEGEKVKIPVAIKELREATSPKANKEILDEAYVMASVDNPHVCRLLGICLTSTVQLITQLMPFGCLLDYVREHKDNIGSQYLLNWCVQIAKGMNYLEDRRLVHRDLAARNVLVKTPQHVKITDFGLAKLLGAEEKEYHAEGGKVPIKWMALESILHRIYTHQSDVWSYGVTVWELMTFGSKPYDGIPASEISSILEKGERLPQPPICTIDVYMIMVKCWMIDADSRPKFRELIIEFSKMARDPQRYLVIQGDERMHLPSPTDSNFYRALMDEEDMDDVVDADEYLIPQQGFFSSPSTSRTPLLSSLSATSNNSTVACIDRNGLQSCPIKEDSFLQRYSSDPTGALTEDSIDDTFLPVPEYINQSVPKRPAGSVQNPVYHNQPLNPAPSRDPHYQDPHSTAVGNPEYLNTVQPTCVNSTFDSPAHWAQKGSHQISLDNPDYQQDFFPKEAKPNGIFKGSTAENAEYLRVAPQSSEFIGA
T1 sequence (Q96GD4 whole entry): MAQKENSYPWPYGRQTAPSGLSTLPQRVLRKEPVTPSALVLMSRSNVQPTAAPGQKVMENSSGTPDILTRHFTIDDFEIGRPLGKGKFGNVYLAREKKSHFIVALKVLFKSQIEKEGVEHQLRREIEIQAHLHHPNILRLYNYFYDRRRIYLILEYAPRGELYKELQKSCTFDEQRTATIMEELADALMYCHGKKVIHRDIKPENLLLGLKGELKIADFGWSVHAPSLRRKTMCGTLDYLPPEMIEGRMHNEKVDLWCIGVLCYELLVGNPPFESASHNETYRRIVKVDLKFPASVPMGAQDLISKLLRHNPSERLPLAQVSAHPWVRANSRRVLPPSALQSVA

Compound	inhibition at 10 µM [1] [%]	inhibition at 100 µM [1] [%]	IC50 [2] [µg/mL]	IC50 [3] [µg/mL]	inhibition at 10 µM [4] [%]	inhibition at 100 µM [4] [%]	inhibition at 10 µM [5] [%]	inhibition at 100 µM [5] [%]	IC50 [6] [µg/mL]	IC50 [7] [µg/mL]	IC50 [8] [µg/mL]	inhibition at 10 µM [9] [%]	inhibition at 100 µM [9] [%]	IC50 [10] [µg/mL]	IC50 [11] [µg/mL]	IC50 [12] [µg/mL]	IC50 [13] [µg/mL]	inhibition at 10 µM [14] [%]	inhibition at 100 µM [14] [%]	inhibition at 10 µM [15] [%]	further results
COCCOc1cc2c(cc1OCCOC)C1=Nc3cccc(Br)c3CN1C=N2.Cl [Compound V-2, 9-bromo-2,3-bis(2-methoxyethoxy)-8H-quinazolino[4,3-b]quinazoline hydrochloride hemihydrate]	72.2	92.7	34	15.3	56.2	83.1	65.4	91.1	0.42	32.3	0.67	59.7	95.9	61.1	4.78	0.11	9.83	28.9	73.8	59.8	LD50 (Acute Toxicity Study): 2050 mg/kg; inhibition at 100 µM [15]: 82.6%; inhibition at 10 µM [16]: 57%; inhibition at 100 µM [16]: 89.6%; The inhibition ratio of the compound on Aurora B(%) (aurora kinase B; 40 μM): 53.2%; The inhibition ratio of the compound on Aurora B(%) (aurora kinase B; 200 μM): 95.8%; inhibition at 10 µM [17]: 53.5%; inhibition at 100 µM [17]: 90%; The inhibition ratio of the compound on EGFR(%) (EGFR tyrosine kinase; 40 μM): 62.9%; The inhibition ratio of the compound on EGFR(%) (EGFR tyrosine kinase; 200 μM): 97.9%; inhibition at 10 µM [18]: 68.6%; inhibition at 100 µM [18]: 90.7%
COCCOc1cc2c(cc1OCCOC)C1=Nc3cc(Cl)ccc3CN1C=N2 [Compound V-15, 11-chloro-2,3-bis(2-methoxyethoxy)-8H-quinazolino[4,3-b]quinazoline]	42.4	81.3	1.5 (≈ 3.61 µM)	5.72 (≈ 13.8 µM)	69.5	85.8	45.2	91.5	21 (≈ 50.5 µM)	55.6 (≈ 134 µM)	1.01 (≈ 2.43 µM)	61.8	94.1	14.3 (≈ 34.5 µM)	24.6 (≈ 59.2 µM)	8.32 (≈ 20 µM)	6.91 (≈ 16.6 µM)	61	93.2	72.6	LD50 (Acute Toxicity Study): 2970 mg/kg; inhibition at 100 µM [15]: 92%; inhibition at 10 µM [16]: 58.3%; inhibition at 100 µM [16]: 96.5%; The inhibition ratio of the compound on Aurora B(%) (aurora kinase B; 40 μM): 58.7%; The inhibition ratio of the compound on Aurora B(%) (aurora kinase B; 200 μM): 92.5%; inhibition at 10 µM [17]: 52.4%; inhibition at 100 µM [17]: 97.4%; The inhibition ratio of the compound on EGFR(%) (EGFR tyrosine kinase; 40 μM): 60.7%; The inhibition ratio of the compound on EGFR(%) (EGFR tyrosine kinase; 200 μM): 94.0%; inhibition at 10 µM [18]: 75.6%; inhibition at 100 µM [18]: 90.8%
C#Cc1ccc2c(c1)N=C1c3cc(OCCOC)c(OCCOC)cc3N=CN1C2 [Compound V-19, 11-ethynyl-2,3-bis(2-methoxyethoxy)-8H-quinazolino[4,3-b]quinazoline]	62.2	92.7	31.1 (≈ 76.7 µM)	12.5 (≈ 30.7 µM)	55.2	91.1	45.4	81.1	36.5 (≈ 90.1 µM)	10 (≈ 24.7 µM)	50 (≈ 123 µM)	49.7	85.9	47.4 (≈ 117 µM)	15.3 (≈ 37.8 µM)	27.3 (≈ 67.4 µM)	9.32 (≈ 23 µM)	33	63.8	55.8	inhibition at 100 µM [15]: 91.6%; inhibition at 10 µM [16]: 37%; inhibition at 100 µM [16]: 89.6%; The inhibition ratio of the compound on Aurora B(%) (aurora kinase B; 40 μM): 52.4%; The inhibition ratio of the compound on Aurora B(%) (aurora kinase B; 200 μM): 95.7%; inhibition at 10 µM [17]: 53.5%; inhibition at 100 µM [17]: 85%; The inhibition ratio of the compound on EGFR(%) (EGFR tyrosine kinase; 40 μM): 53.4%; The inhibition ratio of the compound on EGFR(%) (EGFR tyrosine kinase; 200 μM): 95.7%; inhibition at 10 µM [18]: 48.6%; inhibition at 100 µM [18]: 90.7%
COCCOc1cc2c(cc1OCCOC)C1=Nc3cc(COS(C)(=O)=O)cc([N+](=O)[O-])c3CN1C=N2.Cl [Compound V-20, mesylate-{9-nitro-2,3-bis(2-methoxyethoxy)-8H-quinazolino[4,3-b]quinazoline-11-methanol}ester hydrochloride]	46.8	75.2	10.1	0.05	57.9	95.6	40.7	97.4	16.8	13.1	12.1	54.8	88.2	55.3	22.7	3.72	71.4	52.3	82.1	65.7	LD50 (Acute Toxicity Study): 750 mg/kg; inhibition at 100 µM [15]: 93.9%; inhibition at 10 µM [16]: 66.9%; inhibition at 100 µM [16]: 92.3%; The inhibition ratio of the compound on Aurora B(%) (aurora kinase B; 40 μM): 58.9%; The inhibition ratio of the compound on Aurora B(%) (aurora kinase B; 200 μM): 96.4%; inhibition at 10 µM [17]: 60.7%; inhibition at 100 µM [17]: 92.2%; The inhibition ratio of the compound on EGFR(%) (EGFR tyrosine kinase; 40 μM): 59.9%; The inhibition ratio of the compound on EGFR(%) (EGFR tyrosine kinase; 200 μM): 98.4%; inhibition at 10 µM [18]: 55%; inhibition at 100 µM [18]: 90.7%
COc1cc2c(cc1OCCCN1CCCC1)C1=Nc3cccc(Cl)c3CN1C=N2 [Compound V-24, 9-chloro-3-methoxy-2-(3-(pyrrolidine-1-yl)propoxy)-8H-quinazolino[4,3-b]quinazoline]	53.5	98.9	10.3 (≈ 24.3 µM)	9.86 (≈ 23.2 µM)	46.6	87.3	53.6	93.8	53.4 (≈ 126 µM)	4.76 (≈ 11.2 µM)	23.3 (≈ 54.8 µM)	42.4	99.9	2.14 (≈ 5.04 µM)	3.41 (≈ 8.02 µM)	1.94 (≈ 4.57 µM)	43.1 (≈ 101 µM)	44.3	99.6	48.9	inhibition at 100 µM [15]: 66.2%; inhibition at 10 µM [16]: 52.7%; inhibition at 100 µM [16]: 99.4%; The inhibition ratio of the compound on Aurora B(%) (aurora kinase B; 40 μM): 52.5%; The inhibition ratio of the compound on Aurora B(%) (aurora kinase B; 200 μM): 90.3%; inhibition at 10 µM [17]: 60.3%; inhibition at 100 µM [17]: 94.6%; The inhibition ratio of the compound on EGFR(%) (EGFR tyrosine kinase; 40 μM): 53.1%; The inhibition ratio of the compound on EGFR(%) (EGFR tyrosine kinase; 200 μM): 94.3%; inhibition at 10 µM [18]: 50.7%; inhibition at 100 µM [18]: 98.2%
COc1cc2c(cc1OCCCN1CCOCC1)C1=Nc3cc(Cl)ccc3CN1C=N2 [Compound V-28, 4-(3-((11-chloro-3-methoxy-8H-quinazolino[4,3-b]quinazoline-2-yl)oxy)propyl)morpholine]	56.4	88	7.84 (≈ 17.8 µM)	10 (≈ 22.7 µM)	40.4	95.4	64.6	99.9	16.3 (≈ 37 µM)	59.7 (≈ 135 µM)	6.42 (≈ 14.6 µM)	51.7	95.6	16.7 (≈ 37.9 µM)	31.4 (≈ 71.3 µM)	18.8 (≈ 42.6 µM)	36.8 (≈ 83.3 µM)	59.2	90.5	54.9	inhibition at 100 µM [15]: 90.7%; inhibition at 10 µM [16]: 16.3%; inhibition at 100 µM [16]: 63.3%; The inhibition ratio of the compound on Aurora B(%) (aurora kinase B; 40 μM): 45.2%; The inhibition ratio of the compound on Aurora B(%) (aurora kinase B; 200 μM): 78.7%; inhibition at 10 µM [17]: 40.1%; inhibition at 100 µM [17]: 92.8%; The inhibition ratio of the compound on EGFR(%) (EGFR tyrosine kinase; 40 μM): 64.4%; The inhibition ratio of the compound on EGFR(%) (EGFR tyrosine kinase; 200 μM): 98.7%; inhibition at 10 µM [18]: 53.7%; inhibition at 100 µM [18]: 97.5%
